Assay results published in patent US20090291977A1, “Chromane Derivatives Useful As Acid Pump Antagonists” (priority 2004, published 2009).

These compounds were tested against T1, Porcine gastric H+/K+-ATPase (Sus scrofa, UniProt P19156) (assay: Ion-leaky porcine gastric H+/K+-ATPase inhibition). Settings: ion-leaky vesicles, 5 mM KCl, pH 6.4, 37° C., 30 minutes.
T1 construct: The gastric vesicles were collected from interface on 0.25 M sucrose layer containing 7% Ficoll; from tissue; host or cells: mucous membrane of fresh porcine stomachs (gastric vesicles)
T1 sequence (P19156 2-1034 limits assumed): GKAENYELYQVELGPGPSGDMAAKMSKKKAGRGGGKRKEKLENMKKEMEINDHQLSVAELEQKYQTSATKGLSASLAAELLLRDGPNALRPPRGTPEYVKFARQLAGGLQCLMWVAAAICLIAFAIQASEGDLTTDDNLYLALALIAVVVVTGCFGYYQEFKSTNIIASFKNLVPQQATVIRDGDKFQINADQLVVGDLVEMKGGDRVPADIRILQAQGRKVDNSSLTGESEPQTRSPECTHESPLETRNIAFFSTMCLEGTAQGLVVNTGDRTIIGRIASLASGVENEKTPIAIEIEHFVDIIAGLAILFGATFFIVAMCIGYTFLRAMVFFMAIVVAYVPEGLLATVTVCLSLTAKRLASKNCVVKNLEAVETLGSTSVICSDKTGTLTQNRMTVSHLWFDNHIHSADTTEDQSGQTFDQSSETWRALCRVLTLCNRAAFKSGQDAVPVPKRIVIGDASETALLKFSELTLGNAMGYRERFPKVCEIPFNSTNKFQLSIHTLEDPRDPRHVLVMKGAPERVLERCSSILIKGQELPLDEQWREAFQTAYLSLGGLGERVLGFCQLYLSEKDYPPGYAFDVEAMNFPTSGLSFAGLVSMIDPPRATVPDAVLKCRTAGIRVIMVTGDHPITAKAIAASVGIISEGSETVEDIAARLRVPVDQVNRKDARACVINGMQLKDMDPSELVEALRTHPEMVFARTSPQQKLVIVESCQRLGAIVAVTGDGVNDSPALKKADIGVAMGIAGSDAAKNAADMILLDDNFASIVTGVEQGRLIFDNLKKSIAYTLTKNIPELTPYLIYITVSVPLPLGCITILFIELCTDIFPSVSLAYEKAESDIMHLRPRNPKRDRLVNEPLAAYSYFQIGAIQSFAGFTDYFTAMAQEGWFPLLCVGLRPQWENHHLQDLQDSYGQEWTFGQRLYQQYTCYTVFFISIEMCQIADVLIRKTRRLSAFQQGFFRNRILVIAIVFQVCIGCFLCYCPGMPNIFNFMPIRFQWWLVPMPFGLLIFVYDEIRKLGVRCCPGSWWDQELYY
T1 sequence (P18434 whole entry partner): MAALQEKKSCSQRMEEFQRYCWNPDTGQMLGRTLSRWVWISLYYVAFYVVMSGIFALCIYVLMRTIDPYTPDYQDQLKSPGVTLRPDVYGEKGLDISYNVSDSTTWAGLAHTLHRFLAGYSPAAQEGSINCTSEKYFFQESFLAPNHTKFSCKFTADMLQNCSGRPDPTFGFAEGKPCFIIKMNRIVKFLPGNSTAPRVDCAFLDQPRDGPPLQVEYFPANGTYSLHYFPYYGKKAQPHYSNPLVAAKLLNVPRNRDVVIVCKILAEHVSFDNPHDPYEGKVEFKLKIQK
Format: biochemical
Method: The porcine gastric vesicles for Porcine gastric H^+/K^+-ATPase inhibition assays were prepared from mucous membrane in fresh porcine stomachs by homogenization with a tight-fitted polytetrafluoroethylene (Teflone®) homogenizer in 0.25 M sucrose at 4° C. The crude pellet was removed with centrifugation at 20,000 g for 30 min. Then supernatant was centrifuged at 100,000 g for 30 min. The resulting pellet was re-suspended in 0.25 M sucrose, and then subjected to density gradient centrifugation at 132,000 g for 90 min. The gastric vesicles were collected from interface on 0.25 M sucrose layer containing 7% Ficoll™ PM400(Amersham Biosciences). This procedure was performed in a cold room.
Ion-leaky porcine gastric H^+/K^+-ATPase-inhibition was measured according to the modified method described in Biochemical Pharmacology, 1988, 37, 2231-2236.
The isolated vesicles were lyophilized, and then kept in deep-freezer until use. For enzyme assay, lyophilized vesicles were reconstituted with 3 mM MgSO4 containing 40 mM Bis-tris (pH 6.4 at 37° C.).
Enzyme reaction was performed incubating 5 mM KCl, 3 mM Na2ATP, 3 mM MgSO4 and 1.0 μg of reconstituted vesicles for 30 minutes at 37° C. in a final 60 μl of reaction mixture (40 mM Bis-tris, pH 6.4) with or without the test compound. Enzyme reaction was stopped by adding 10% sodium dodecyl sulphate (SDS). Released inorganic phosphate from ATP was detected by incubation with mixture of 1 part of 35 mM ammonium molybdate tetrahydrate in 15 mM Zinc acetate hydrate and 4 parts of 10% ascorbic acid (pH 5.0), resulting in phosphomolybdate, which has optical density at 750 nm.
With `Cc1nc2c(NC3CCOc4ccc(F)cc43)cc(C(=O)N(C)CCO)cn2c1C` (single isomer, unassigned) [Example 13-2, 8-[(6-Fluoro-3,4-dihydro-2H-chromen-4-yl)amino]-N-(2-hydroxyethyl)-N,2,3-trimethylimidazol[1,2-a]pyridine-6-carboxamide] the IC50 was 1100 nM. `Cc1nc2c(NC3COCc4ccccc43)cc(C(=O)N(C)CCO)cn2c1C` (single isomer, unassigned; (+)) [Example 4-3, (+)-8-(3,4-Dihydro-1H-isochromen-4-ylamino)-N-(2-hydroxyethyl)-N,2,3-trimethylimidazo[1,2-a]pyridine-6-carboxamide] showed an IC50 of 112 nM. Compound `Cc1nc2c(NC3CCOc4ccccc43)cc(C(=O)N(C)C)cn2c1C` (racemic) [Example 1-1, 8-(3,4-Dihydro-2H-chromen-4-ylamino)-N,N,2,3-tetramethylimidazo[1,2-a]pyridine-6-carboxamide] has an IC50 of 85 nM. `Cc1nc2c(NC3CCOc4ccc(F)cc43)cc(C(=O)N(C)CCO)cn2c1C` (single isomer, unassigned) [Example 13-3, 8-[(6-Fluoro-3,4-dihydro-2H-chromen-4-yl)amino]-N-(2-hydroxyethyl)-N,2,3-trimethylimidazol[1,2-a]pyridine-6-carboxamide] showed an IC50 of 170 nM. `Cc1nc2c(NC3CCOc4cccc(Cl)c43)cc(C(=O)N(C)C)cn2c1C` (racemic) [Example 18-1, 8-[(5-Chloro-3,4-dihydro-2H-chromen-4-yl)amino]-N,N,2,3-tetramethylimidazo[1,2-a]pyridine-6-carboxamide] gave an IC50 of 350 nM. Work on `Cc1nc2c(NC3CCOc4c(F)cccc43)cc(C(=O)N(C)CCO)cn2c1C` (single isomer, unassigned) [Example 15-3, 8-[(8-Fluoro-3,4-dihydro-2H-chromen-4-yl)amino]-N-(2-hydroxyethyl)-N,2,3-trimethylimidazol[1,2-a]pyridine-6-carboxamide] yielded an IC50 of 370 nM. `Cc1nc2c(NC3CCOc4cc(F)cc(F)c43)cc(C(=O)N(C)CCO)cn2c1C` (single isomer, unassigned) [Example 9-2, 8-[(5,7-Difluoro-3,4-dihydro-2H-chromen-4-yl)amino]-N-(2-hydroxyethyl)-N,2,3-trimethylimidazo[1,2-a]pyridine-6-carboxamide] was tested, and the IC50 was 15.9 nM. Compound `Cc1cccc2c1C(Nc1cc(C(=O)N(C)CCO)cn3c(C)c(C)nc13)CCO2` (single isomer, unassigned; (-)) [Example 5-2, (−)-N-(2-Hydroxyethyl)-N,2,3-trimethyl-8-[(5-methyl-3,4-dihydro-2H-chromen-4-yl)amino]imidazo[1,2-a]pyridine-6-carboxamide] has an IC50 of 86.2 nM. For `Cc1nc2c(NC3CCOc4cc(F)cc(F)c43)cc(C(=O)N(C)C)cn2c1C` (single isomer, unassigned) [Example 8-2, 8-[(5,7-Difluoro-3,4-dihydro-2H-chromen-4-yl)amino]-N,N,2,3-tetramethylimidazo[1,2-a]pyridine-6-carboxamide], the IC50 was 23 nM. In the case of `Cc1nc2c(NC3CCOc4c(F)cccc43)cc(C(=O)N(C)CCO)cn2c1C` (single isomer, unassigned) [Example 15-2, 8-[(8-Fluoro-3,4-dihydro-2H-chromen-4-yl)amino]-N-(2-hydroxyethyl)-N,2,3-trimethylimidazol[1,2-a]pyridine-6-carboxamide], the IC50 is reported as 230 nM. Compound `Cc1nc2c(NC3CCOc4cccc(Cl)c43)cc(C(=O)N(C)C)cn2c1C` (single isomer, unassigned) [Example 18-2, 8-[(5-Chloro-3,4-dihydro-2H-chromen-4-yl)amino]-N,N,2,3-tetramethylimidazo[1,2-a]pyridine-6-carboxamide] has an IC50 of 300 nM. `Cc1nc2c(NC3CCOc4ccc(F)cc43)cc(C(=O)N(C)C)cn2c1C` (single isomer, unassigned) [Example 12-2, 8-[(6-Fluoro-3,4-dihydro-2H-chromen-4-yl)amino]-N,N,2,3-tetramethylimidazo[1,2-a]pyridine-6-carboxamide] showed an IC50 of 197 nM. For `Cc1nc2c(NC3COCc4ccccc43)cc(C(=O)N(C)C)cn2c1C` (single isomer, unassigned; (-)) [Example 3-2, (−)-8-(3,4-Dihydro-1H-isochromen-4-ylamino)-N,N,2,3-tetramethylimidazo[1,2-a]pyridine-6-carboxamide], the IC50 was 125 nM. For `Cc1nc2c(NC3CCOc4ccccc43)cc(C(=O)N(C)C)cn2c1C` (single isomer, unassigned; (+)) [Example 1-3, (+)-8-(3,4-Dihydro-2H-chromen-4-ylamino)-N,N,2,3-tetramethylimidazo[1,2-a]pyridine-6-carboxamide], the IC50 was 27.8 nM. For `Cc1nc2c(NC3CCOc4cc(F)ccc43)cc(C(=O)N(C)CCO)cn2c1C` (single isomer, unassigned) [Example 7-2, 8-[(7-Fluoro-3,4-dihydro-2H-chromen-4-yl)amino]-N-(2-hydroxyethyl)-N,2,3-trimethylimidazol[1,2-a]pyridlne-6-carboxamide], the IC50 was 20.5 nM. With `Cc1nc2c(NC3CCOc4ccccc43)cc(C(=O)N(C)CCO)cn2c1C` (racemic) [Example 2-1, 8-(3,4-Dihydro-2H-chromen-4-ylamino)-N-(2-hydroxyethyl)-N,2,3-trimethylimidazo[1,2-a]pyridine-6-carboxamide] the IC50 was 49.7 nM. In the case of `Cc1nc2c(NC3CCOc4cc(F)cc(F)c43)cc(C(=O)N(C)CCO)cn2c1C` (racemic) [Example 9-1, 8-[(5,7-Difluoro-3,4-dihydro-2H-chromen-4-yl)amino]-N-(2-hydroxyethyl)-N,2,3-trimethylimidazo[1,2-a]pyridine-6-carboxamide], the IC50 is reported as 50 nM. In the case of `Cc1nc2c(NC3COCc4ccccc43)cc(C(=O)N(C)C)cn2c1C` (single isomer, unassigned; (+)) [Example 3-3, (+)-8-(3,4-Dihydro-1H-isochromen-4-ylamino)-N,N,2,3-tetramethylimidazo[1,2-a]pyridine-6-carboxamide], the IC50 is reported as 67.6 nM. `Cc1nc2c(NC3CCOc4cccc(Cl)c43)cc(C(=O)N(C)C)cn2c1C` (single isomer, unassigned) [Example 18-3, 8-[(5-Chloro-3,4-dihydro-2H-chromen-4-yl)amino]-N,N,2,3-tetramethylimidazo[1,2-a]pyridine-6-carboxamide] gave an IC50 of 240 nM. For `Cc1nc2c(NC3CCOc4cc(F)ccc43)cc(C(=O)N(C)C)cn2c1C` (single isomer, unassigned) [Example 6-3, 8-[(7-Fluoro-3,4,dihydro-2H-chromen-4-yl)amino]-N,N,2,3-tetramethylimidazo[1,2-a]pyridine-6-carboxamide], the IC50 was 15.7 nM. `Cc1nc2c(NC3CCOc4cc(F)ccc43)cc(C(=O)N(C)CCO)cn2c1C` (racemic) [Example 7-1, 8-[(7-Fluoro-3,4-dihydro-2H-chromen-4-yl)amino]-N-(2-hydroxyethyl)-N,2,3-trimethylimidazol[1,2-a]pyridlne-6-carboxamide] was tested, and the IC50 was 26.6 nM. For `Cc1nc2c(NC3CCOc4cccc(F)c43)cc(C(=O)N(C)C)cn2c1C` (racemic) [Example 10-1, 8-[(5-Fluoro-3,4-dihydro-2H-chromen-4-yl)amino]-N,N,2,3-tetramethylimidazo[1,2-a]pyridine-6-carboxamide], the IC50 was 75.1 nM. In the case of `Cc1nc2c(NC3CCOc4cc(F)ccc43)cc(C(=O)N(C)C)cn2c1C` (single isomer, unassigned) [Example 6-2, 8-[(7-Fluoro-3,4,dihydro-2H-chromen-4-yl)amino]-N,N,2,3-tetramethylimidazo[1,2-a]pyridine-6-carboxamide], the IC50 is reported as 40.9 nM.
